Measurements reported in patent US6958345B2, “2-hydroxymethylcyclopropylidene methylpurines and -pyrimidines as antiviral agents” (The Regents of the University of Michigan, priority 1997, dated 2005).
Read-outs that look alike come from different tables or passages of the source.

Columns and labels:
[1] = Toxicity controls: uninfected mice given test compound; format: in vivo; conditions: 5.6, 16.7 and 50 mg/kg i.p. once daily for five days
Procedure: (§1) Compounds 1 (B=adenin-N^9-yl and guanin-N^9-yl) were evaluated in mice infected with murine cytomegalovirus (MCMV). Mice were infected intraperitonealy with sufficient MCMV to produce 90 to 100% mortality. Compounds were administered once daily for five days at doses of 5.6, 16.7 and 50 mg/kg by intraperitoneal injection in a 0.4% suspension of carboxymethylcellulose. Ganciclovir was administered in sterile water at the same doses as a positive control drug. All compounds were administered to separate groups of 15 mice each at 6, 24, and 48 hours after infection with MCMV. Groups of 10 uninfected mice also received test compounds as toxicity controls at the doses listed above.

[2] = tested on: CEM cells; experiment: Cytotoxicity in growing CEM cells, microscopic inspection; format: cell-based
Procedure: (§2) Cells and viruses. The routine growth and passage of KB cells was performed in monolayer cultures using minimal essential medium (MEM) with either Hanks salts [MEM(H)] or Earle salts [MEM(E)] supplemented with 10% calf serum. The sodium bicarbonate concentration was varied to meet the buffering capacity required. Cultures of diploid human foreskin fibroblasts (HFF) or MRC-5 cells were grown in medium consisting of MEM(E) with 10% fetal bovine serum. Cells were passaged at 1:2 to 1:10 dilutions according to conventional procedures by using 0.05% trypsin plus 0.02% EDTA in a HEPES buffered salt solution (HBS) (Shipman, C., Jr., Proc. Soc. Exp. Biol. 130:305-310 (1969)) as described previously. Turk, S. R., et al., Antimicrob. Agents Chemother. 31:544-550 (1987). HFF and MRC-5 cells were passaged only at 1:2 dilutions. CEM cells were maintained in suspension culture as detailed previously. Kucera, L. S., et al., AIDS Res. Human Retroviruses 9:307-314 (1993).
(§3) Cytotoxicity assays. Two different assays were used to explore cytotoxicity of selected compounds as we have detailed previously. (i) Cytotoxicity produced in stationary HFF cells and in growing CEM cells was determined by microscopic inspection of cells used in plaque and RT assays which were not affected by the virus. Turk, S. R., et al., Antimicrob. Agents Chemother. 31:544-550 (1987). (ii) The effect of compounds during two population doublings of KB cells was determined by crystal violet staining and spectrophotometric quantitation of dye eluted from stained cells. Prichard, M. N., et al., Antimicrob. Agents Chemother. 35:1060-1065 (1991).
(§4) Data Analysis. Dose-response relationships were constructed by linearly regressing the percent inhibition of parameters derived in the preceding sections against log drug concentrations. Fifty-percent inhibitory (IC50) concentrations were calculated from the regression lines. Samples containing positive controls (acyclovir for HSV-1, ganciclovir for HCMV, and 2-acetylpyridine thiosemicarbazone for cytotoxicity) were used in all assays.

[3] = tested on: HCMV; experiment: HCMV plaque reduction assay in HFF cells; format: cell-based, Human CMV (HCMV); conditions: HFF cells; plaque reduction
Procedure: as §2
(§5) Virological procedures. Stock HCMV was prepared by infecting HFF cells at a multiplicity of infection (m.o.i.) of <0.01 plaque-forming units (p.f.u.) per cell. Cell growth medium was changed every four days until cytopathology was evident in all cells (approximately 21 days). Supernatant fluids were retained as the virus stock. High titer HSV-1 stocks were prepared by infecting KB cells at an m.o.i. of <0.1 as detailed previously. Turk, S. R., et al., Antimicrob. Agents Chemother. 31:544-550 (1987). Virus titers were determined using monolayer cultures of HFF cells for HCMV and monolayer cultures of BSC-1 cells for HSV-1 as described earlier. Prichard, M. N., et al., J. Virol. Methods 28:101-106 (1990). Briefly, HFF or BSC-1 cells were planted as described above in 96-well cluster dishes and incubated overnight at 37° C. in a humidified 3% CO297% air atmosphere. The next day cultures were inoculated with HCMV or HSV-1 and serially diluted 1:3 across the remaining eleven columns of the 96-well plate. Cultures were incubated at 37° C. for 2 hr to permit virus adsorption and then virus inoculum was replaced with 0.2 mL of fresh medium. Cultures were incubated for seven days for HCMV, two or three days for HSV-1, medium was removed, and the cell sheets were stained with 0.1% crystal violet in 20% methanol. Plaques were enumerated under 20-fold magnification in wells having the dilution which gave 5 to 20 plaques per well. Virus titers were calculated according to the following Formula: Titer (p.f.u./mL)=number of plaques×5×3^n; where n represents the nth dilution of the virus used to infect the well in which plaques were enumerated.
(a) HCMV. The effect of compounds on the replication of HCMV has been measured using a plaque reduction assay. HFF cells in 24-well cluster dishes were infected with approximately 100 p.f.u. of HCMV per cm^2 cell sheet using the procedures detailed above. Following virus adsorption, compounds dissolved in growth medium were added to duplicate wells in three to six selected concentrations. Following incubation at 37° C. for 7 to 10 days, cell sheets were fixed, stained with crystal violet and microscopic plaques enumerated as described above. Drug effects were calculated as a percentage of reduction in number of plaques in the presence of each drug concentration compared to the number observed in the absence of drug. Ganciclovir (DHPG) was used as a positive control in all experiments.
as §4

[4] = tested on: HFF cells; experiment: Cytotoxicity in stationary HFF cells, microscopic inspection; format: cell-based, human
Procedure: as §2, §3, §4

[5] = tested on: HCMV; experiment: HCMV yield reduction assay in HFF cells; format: cell-based, Human CMV (HCMV); conditions: footnote says IC90
Procedure: as §5
The effect of compounds on the replication of HCMV also was measured using a yield reduction assay. HFF cells were planted as described above in 96-well cluster dishes, incubated overnight, medium removed and the cultures were inoculated with HCMV at a m.o.i. of 0.5 to 1 p.f.u. per cell as reported elsewhere. After virus adsorption, inoculum was replaced with 0.2 mL of fresh medium containing test compounds. The first row of 12 wells was left undisturbed and served as virus controls. Each well in the second row received an additional 0.1 mL of medium with test compound at three times the desired final concentration. The contents of the 12 wells were mixed by repeated pipetting and then serially diluted 1:3 along the remaining wells. In this manner, six compounds could be tested in duplicate on a single plate with concentrations from 100 μM to 0.14 μM. Plates were incubated at 37° C. for seven days, subjected to one cycle of freezing and thawing; aliquots from each of the eight wells of a given column were transferred to the first column of a fresh 96-well monolayer culture of HFF cells. Contents were mixed and serially diluted 1:3 across the remaining eleven columns of the secondary plate. Each column of the original primary plate was diluted across a separate plate in this manner. Cultures were incubated, plaques were enumerated, and titers calculated as described above.
as §4

[6] = tested on: HIV-1; experiment: HIV-1 reverse transcriptase assay in infected CEM cells; format: cell-based, strain IIIB of HIV-1; conditions: reverse transcriptase assay, CEM cells; low moi (footnote c of the 5th table); read-out: HIV-1, IC50
Procedure: (d) HIV-1. Reverse transcriptase (RT) was employed as a marker for HIV-1. This assay measured the presence of HIV in supernatants of CEM cells infected with strain IIIB of HIV-1 by the amount of RT activity. Cells were grown, infected, and incubated in the presence of seven concentrations (one-half log10 dilutions) beginning at 1 or 100 μM of compounds to be assayed. Procedures and the RT assay were performed as detailed previously. Kucera, L. S., et al., AIDS Res. Human Retroviruses 9:307-314 (1993); White, E. L., et al., Antiviral Res. 16:257-266 (1991).

[7] = tested on: KB cells; experiment: Cytotoxicity in KB cells, growth over two population doublings; format: cell-based
Procedure: as §2, §3, §4

[8] = tested on: HSV-1; experiment: HSV-1 ELISA in BSC-1 cells; format: cell-based, herpes simplex 1 (HSV-1); conditions: BSC-1 cells; ELISA
Procedure: as §5
(b) HSV-1. An enzyme-linked immunosorbent assay (ELISA) was employed to detect HSV-1. 96-well cluster dishes were planted with BSC-1 cells at 10,000 cells per well, in a total volume of 200 μL per well of MEM(E) plus 10% calf serum. After overnight incubation at 37° C., drug and HSV-1 was added at the rate of 100 PFU/well. ELISA plates were blocked with 200 μL per well of 10% calf serum and 0.05% tween in HBS. After incubation for 30 minutes, the blocking agent was rinsed two times with HBS-T. A 1:400 dilution of AP conjugated rabbit anti-HSV-1 antibody in HBS-F was added. Plates were sealed with adhesive sheet, and incubated on rocker for one hour at 37° C. Plates were developed in the dark with 100 μL per well of substrate solution containing p-nitrophenyl phosphate. Plates were read at […]. Drug effects were calculated as a percentage of the reduction in virus in the presence of each drug concentration compared to the titer obtained in the absence of drug. Acyclovir was used as a positive control in all experiments.
as §4

[9] = tested on: murine cytomegalovirus (MCMV); experiment: Mortality of mice infected with murine cytomegalovirus; format: in vivo; conditions: 5.6 mg/kg
Procedure: as §1

SMILES | deaths in uninfected mice that received only drug [1] | IC50 [2] [µM] | IC50 [3] [µM] | IC50 [4] [µM] | IC90 [5] [µM] | IC50 [6] [µM] | IC50 [7] [µM] | IC50 [8] [µM] | efficacy against MCMV mortality compared with compound 1 (B=guanin-N^9-yl) [9] | IC50 ([2]; growing CEM cells, visual, read-out: Cytotoxicity IC50 CEM (visual)) [µM] | IC50 ([4]; stationary HFF cells, visual, read-out: Cytotoxicity IC50 HFF (visual)) [µM] | IC50 ([7]; KB cell growth, read-out: Cytotoxicity IC50 KB (growth)) [µM]
Nc1nc2c(ncn2C=C2CC2CO)c(=O)[nH]1 (stereo not drawn) [1 (B = guanine), Example 8, syn-N^9-(2-hydroxymethylcyclopropylidenemethyl)guanine] | No deaths were observed | > 100 | 2 | > 100 | 1.8 | 1.3 | > 100 | – | – | – | – | –
Nc1ccn(C=C2CC2CO)c(=O)n1 (stereo not drawn) [1 (B = cytosine), Example 12, syn-N^1-(2-Hydroxymethylcyclopropylidenemethyl)cytosine] | – | > 100 | 28 | > 100 | 16 | – | > 100 | > 100 | – | – | – | –
Nc1nc(O)c2ncn(COC(CO)CO)c2n1 [ganciclovir, reference compound] | – | – | – | – | – | – | – | – | somewhat more effective | – | – | –
COC(=O)[C@H](C)NP(=O)(OCC1CC1=Cn1cnc2c(N)ncnc21)Oc1ccccc1 (stereo partly drawn) [3 (B = adenine), Example 13, Methyl Phenylphosphoro-L-alaninate of syn-N^9-(2-Hydroxymethylcyclopropylidenemethyl)adenine] | – | – | 0.14 | – | 0.21 | < 0.14 | – | 2.5 | – | 1.1 | 2.5 | 0.5
Nc1nc(NC2CC2)c2ncn(C=C3CC3CO)c2n1 (stereo not drawn) [syn-2-Amino-6-cyclopropylamino-N^9-(2-hydroxymethylcyclopropylidenemethyl)purine] | – | > 100 | 0.4 | > 100 | 1 | – | > 100 | 20 | – | – | – | –
Nc1nc(Cl)c2ncn(C=C3CC3CO)c2n1 (stereo not drawn) [syn-2-amino-6-chloro-N^9-(2-hydroxymethylcyclopropylidenemethyl)purine] | – | – | 5 | > 100 | 0.8 | – | > 100 | 40 | – | – | – | –
Nc1nc(N)c2ncn(C=C3CC3CO)c2n1 (stereo not drawn) [1 (B = 2,6-diaminopurine), Example 9, syn-2,6-Diamino-N^9-(2-hydroxymethylcyclopropylidenemethyl)purine] | – | > 100 | 15 | > 100 | 18 | – | > 100 | > 100 | – | – | – | –
